Laboratory results from patent US4783530A, “8-arylxanthines” (priority 1987, dated 1988).
≈ marks a conversion by molar mass, not a printed value. Counter-ions that a name gives are not always drawn. Like-named read-outs stand apart in the source and are kept apart here.

What was measured:
[1] = molecular target: T1, adenosine receptor sites on guinea pig cortical membranes (Cavia porcellus, UniProt P47745); test: Adenosine Receptor Binding Assay, inhibition of specific [^3 H]-cyclohexyladenosine ([^3 H]CHA) binding; conditions: 4 nM [^3 H]CHA, 120 minutes at 23° C.
T1 sequence (P47745 1-326): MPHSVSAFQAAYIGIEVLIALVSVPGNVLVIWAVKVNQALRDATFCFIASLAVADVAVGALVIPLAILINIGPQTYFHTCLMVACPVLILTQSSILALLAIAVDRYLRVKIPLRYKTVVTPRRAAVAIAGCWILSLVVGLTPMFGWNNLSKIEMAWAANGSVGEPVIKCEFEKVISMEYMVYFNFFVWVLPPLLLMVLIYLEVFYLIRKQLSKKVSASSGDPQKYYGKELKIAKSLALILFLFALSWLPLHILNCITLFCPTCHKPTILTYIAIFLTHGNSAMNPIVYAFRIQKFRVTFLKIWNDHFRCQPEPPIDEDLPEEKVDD
Procedure: Adenosine Receptor Binding Assay. The potency of 8-arylxanthine compounds to inhibit the specific binding of [^3 H]-cyclohexyladenosine ([^3 H]CHA) to adenosine receptor sites on guinea pig cortical membranes was examined using standard in vitro ligand binding techniques. […] Briefly, guinea pig cortical tissue was homogenized in ice cold 50 mM Tris HCl buffer (pH 7.4) using a Brinkman Polytron. The homogenate was centrifuged at 48,000 x g for 10 minutes and the resulting tissue pellet was suspended in fresh cold buffer to yield a tissue concentration of 10 mg (wet weight)/ml. This tissue suspension was incubated for 30 minutes at 37° C. in the presence of adenosine deaminase (0.2 I.U./mg tissue). Following this incubation, the tissue suspension was centrifuged as before and the resulting pellet was suspended in fresh buffer at a concentration of 7-10 mg tissue (wet weight)/ml. Inhibition of the specific binding of [^3 H]CHA (New England Nuclear; 25 Ci/mmol) was examined in a total volume of 2 ml containing 50 mM Tris HCl, 7-10 mg of cortical tissue (1 ml of tissue suspension), 4 nM [^3 H]CHA and various concentrations of the test compounds. Nonspecific binding was determined in the presence of 10^-5 M 2-chloroadenosine. The binding reaction was carried out for 120 minutes at 23° C. and was terminated by vacuum filtration over Whatman GF/B filters using a Brandel M-48R Cell Harvester. The filters were washed 3 times with 3 ml of cold buffer and placed in scintillation vials in a Beckman LS 3801 scintillation counter. Dose-inhibition curves were generated with 10-12 concentrations of the test compound using triplicate incubations. The inhibition constants (Ki value) were calculated using EBDA, a log-logit iterative curve fitting program (McPhearson, Comput. Prog. Biomed. 107:220, 1983).

A2 receptor = A2 receptor (Rattus norvegicus, UniProt P30543); test: biochemical; conditions: Schild analysis; A2 receptor mediated stimulation of adenylate cyclase, PC12 membranes
Procedure: The A2 receptor mediated stimulation of adenylate cyclase was measured by a modification of the procedure of Premont et al. (Molec. Pharmacol. 16: 790, 1979). Typically, pheochromocytoma cell (PC12) membranes were thawed and added to a reaction mixture containing a final concentration of 25 mM Tris-HCl, pH 7.1, 1 mM MgCl2, 50 μM ATP, 50 μM cAMP, 0.1 mM papaverine, 0.4 IU/ml adenosine deaminase, 5 mM creatine phosphate, 0.2 mg/ml creatine phosphokinase, 10 μg membrane protein, [α^32 P]ATP (μ10^-6 DPM), 5 μM GTP, and various concentrations of adenosine agonists and/or antagonists in a final volume of 100 μl. The reaction was initiated with the addition of tissue and incubated 30° C. for 20 minutes. Reactions were terminated with 100 μl of 40 mM ATP, 1.4 mM cAMP and 2% SDS. ^32 P-cAMP isolated according to the procedure to the procedure of Salomon et al. (Adv. Cyclic Nucleotide Res. 10: 35, 1979).
(§1) The Ki values for the test compounds were derived from Schild analysis as described by Tallarida et al. (Life Sciences 25: 637, 1979) in which the progressive shift in the dose response to a standard agonist was assessed using 3 concentrations of the test compound distributed over a 100-fold molar range. All incubations were performed in triplicate.

[2] = test system: NECA-induced depression of force and rate of an isolated guinea pig heart; test: NECA Depressed Langendorff Heart; conditions: for IC50: guinea pig; for NECA - Depressed Langendorff Heart Force/Rate: ratio of force to rate TC50
Procedure: NECA Depressed Langendorff Heart. Hearts were rapidly excised from male guinea-pigs and transferred to a beaker containing a Krebs-bicarbonate solution at 5° C. Each heart was gently massaged to clear it of blood and clots, and the surrounding tissue was cut away. The cut aortic stump was secured to a glass cannula for retrograde perfusion of the coronary circulation.
Perfusion was at a constant rate of 5-7 ml/min, produced with a Holter peristaltic pump. […] Alterations in perfusion pressure arising from changes in coronary vascular resistance were recorded on a Gould recorder by means of Gould pressure transducers attached at a sidearm of the aortic cannula. Isometric contractions of the heart were recorded with a Grass transducer attached by a suture via a pulley to a clip on the apex of the ventricles. Rates of contraction were determined by counting heart beats.
Drugs were added directly into the perfusion solutions. Drug concentrations were changed by switching solutions. Cardiac functions were depressed with NECA or adenosine by infusing a solution of one or the other ([…]) into the perfusion solution through an injection port located immediately adjacent to the warming coil. IC50 is defined as the concentration of compound that will cause 50 percent inhibition of the NECA-induced depression of force and rate of an isolated guinea pig heart.

[3] = Solubility (mg/ml) 37° C.
A1 receptor = molecular target: T2, A1 receptor (Rattus norvegicus, UniProt P25099); test: biochemical; conditions: for Ki: Schild analysis, A1 receptor mediated inhibition of adenylate cyclase; for Adenylate cyclase A2 /A1: ratio of A2 Ki to A1 Ki
T2 sequence (P25099 1-326): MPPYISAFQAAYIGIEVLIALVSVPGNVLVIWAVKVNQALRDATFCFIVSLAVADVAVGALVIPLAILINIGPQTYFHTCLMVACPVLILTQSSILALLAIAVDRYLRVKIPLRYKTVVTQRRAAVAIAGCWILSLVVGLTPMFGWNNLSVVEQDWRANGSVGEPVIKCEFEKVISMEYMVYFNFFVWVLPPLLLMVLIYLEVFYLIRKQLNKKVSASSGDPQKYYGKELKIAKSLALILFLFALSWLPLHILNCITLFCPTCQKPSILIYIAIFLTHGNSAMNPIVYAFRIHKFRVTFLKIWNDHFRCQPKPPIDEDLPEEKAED
Procedure: The A1 receptor mediated inhibition of adenylate cyclase activity was measured by a modification of the procedure of Londos et al. (Proc. Natl. Acad. Sci. 75: 5362, 1978). Membrane protein (10-15 μg) was added to a reaction mixture containing a final concentration of 25 mM Tris-HCl (pH 7.4), 2 mM MgCl2 50 μM ATP, 50 μM cAMP, 1 mM dithiothreitol, 0.25 mg/ml BSA, 1 IU/ml adenosine deaminase, 5 mM creatine phosphate, 0.2 mg/ml creatine phosphokinase, 80 mM NaCl, [α^32 P]ATP (1.5 c 10^-6 DPM) and 100M GTP in 100 μl final volume. Incubations were carried out for 10 minutes at 24° C.
as §1

animals = conditions: in vivo; cited from earlier work
adenosine (A1) receptor = conditions: cited from earlier work
guinea pig thymocytes = conditions: less potent than 8-phenyltheophylline; NECA-induced cyclic AMP accumulation; cited from earlier work
adenosine receptors = conditions: Daly et al. J. Med. Chem. 1985; cited from earlier work
[4] = 50 percent inhibition of the NECA-induced depression of force, read-out: NECA - Depressed Langendorff Heart TC50 Force
[5] = 50 percent inhibition of the NECA-induced depression of rate, read-out: NECA - Depressed Langendorff Heart TC50 Rate

A2 receptor, sequence (P30543 whole entry): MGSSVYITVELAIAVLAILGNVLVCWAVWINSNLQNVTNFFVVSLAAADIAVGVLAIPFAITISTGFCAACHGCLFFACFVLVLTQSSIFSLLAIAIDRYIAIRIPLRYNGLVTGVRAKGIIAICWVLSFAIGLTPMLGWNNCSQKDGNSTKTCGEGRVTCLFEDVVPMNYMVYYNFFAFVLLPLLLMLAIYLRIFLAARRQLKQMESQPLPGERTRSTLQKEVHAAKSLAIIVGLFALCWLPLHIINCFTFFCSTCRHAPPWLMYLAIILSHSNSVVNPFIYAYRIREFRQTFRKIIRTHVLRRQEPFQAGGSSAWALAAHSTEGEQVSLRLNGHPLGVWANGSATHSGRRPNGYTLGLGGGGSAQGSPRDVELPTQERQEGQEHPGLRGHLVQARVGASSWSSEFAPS

Ki [1] [µM]	Ki (A2 receptor) [µM]	solubility [3] [mg/mL]	Ki (A1 receptor) [µM]	Adenylate cyclase A2 /A1 (A1 receptor)	Compound	IC50 [2, 4] [µM]	IC50 [2, 5] [µM]	NECA - Depressed Langendorff Heart Force/Rate [2]	force and rate properties / effect on force and rate of contraction (in words) ([2]; NECA depressed Langendorff heart, guinea pigs)	overt activity in animals (animals)	selectivity toward A1 adenosine receptor (adenosine (A1) receptor)	potency relative to 8-phenyltheophylline (guinea pig thymocytes) [fold]	selectivity after introduction of the sulfonyl group (adenosine receptors)
0.086	0.131	0.08 (≈ 201 µM)			CCCn1c(=O)c2[nH]c(-c3ccc(NC(=O)N(C)C)cc3)nc2n(CCC)c1=O [Pr Pr H NHC(=O)NMe2, 1,3-Dipropyl-8-(4-N,N-dimethylureidophenyl) xanthine]	0.36	0.98	0.61					
0.129	0.14	1	0.012	11.7	CCCn1c(=O)c2[nH]c(-c3ccc(C(=N)NC)cc3)nc2n(CCC)c1=O [Pr Pr H C(NH)NHMe, 1,3-Dipropyl-8-(4-N-methylamidinophenyl)xanthine hydrochloride hydrate]	1.47	3.77	0.39					
0.045	0.421	< 0.0004	0.0126	33.4	CCCn1c(=O)c2[nH]c(-c3ccc(Cl)cc3N)nc2n(CCC)c1=O [PACPX, reference compound]	1.11	0.18	6.17	unfavorable force and rate properties	little overt activity in animals	selective toward A1 --adenosine receptor		
1.84					CNC(=N)c1ccc(-c2nc3c([nH]2)c(=O)n(C)c(=O)n3C)cc1 [Me Me H C(NH)NHMe, 1,3-Dimethyl-8-(4-N-methylamidinophenyl)xanthine hydrochloride hydrate]	3.64	18.4	0.20					
0.169	0.664	25	0.0887	7	CCCn1c(=O)c2[nH]c(-c3ccc(O)c(CN(C)C)c3)nc2n(CCC)c1=O [Pr Pr CH2 NMe2 OH, 1,3-Dipropyl-8-(3-N,N-dimethylaminomethyl-4hydroxyphenyl)xanthine hydrochloride hydrate]	1.49	2.06	0.72					
0.423	0.529		0.0269	20	CCCn1c(=O)c2[nH]c(-c3ccc(C(=O)OCC)cc3)nc2n(CCC)c1=O [Pr Pr H COOEt, 1,3-Dipropyl-8-(4-carboethoxyphenyl)xanthine]	4.78	7.84	0.61					
0.081	0.309	3	0.0097	31.9	CCCn1c(=O)c2[nH]c(-c3ccc(C(=N)N)cc3)nc2n(CCC)c1=O [Pr Pr H C(NH)NH2, 1,3-Dipropyl-8-(4-amidinophenyl)xanthine hydrochloride hemi-hydrate]	1.4	7.03	0.20					
		0.25 (≈ 621 µM)			CCCn1c(=O)c2[nH]c(-c3cccc(OCC(O)CO)c3)nc2n(CCC)c1=O (stereo not shown) [Pr Pr OCH2 (CH2 OH)2 H, 1,3-Dipropyl-8-[3-(2,3-dihydroxypropyloxy)phenyl]xanthine]	0.49	1.04	0.47					
					Cn1c(=O)c2[nH]c(-c3ccc(S(=O)(=O)O)cc3)nc2n(C)c1=O [(II), 8-[4-sulfophenyl]-theophylline]							3	decrease in selectivity

Compound	Ki [1] [µM]	Ki (A2 receptor) [µM]	solubility [3] [mg/mL]	Ki (A1 receptor) [µM]	Adenylate cyclase A2 /A1 (A1 receptor)	IC50 [2, 4] [µM]	IC50 [2, 5] [µM]	NECA - Depressed Langendorff Heart Force/Rate [2]	force and rate properties / effect on force and rate of contraction (in words) ([2]; NECA depressed Langendorff heart, guinea pigs)	overt activity in animals (animals)	selectivity toward A1 adenosine receptor (adenosine (A1) receptor)	potency relative to 8-phenyltheophylline (guinea pig thymocytes) [fold]	selectivity after introduction of the sulfonyl group (adenosine receptors)
Cl.Cn1c(=O)c2[nH]c(-c3ccc(C(=N)N)cc3)nc2n(C)c1=O.O [Me Me H C(NH)NH2, 1,3-Dimethyl-8-(4-amidinophenyl)xanthine hydrochloride hydrate]	1.14	0.523		0.244	2.1	2.01	15.6	0.13					
CCCn1c(=O)c2[nH]c(-c3ccc(CN)cc3)nc2n(CCC)c1=O.Cl.O [Pr Pr H CH2 NH2, 1,3-Dipropyl-8-(4-aminomethylphenyl)xanthine hydrochloride hydrate]	0.0668	0.432	0.5	0.0163	26	0.57	2	0.28					
